Data: US20060167115A1, “Compositions for the preservation of timber” (priority 2003, published 2006)

Assays:
Assay in all cases: Biological efficacy test (ASTM D1413-76), soil block medium
Assay type in all cases: cell-based
Neo-Lentinus lepideus = tested on: Neo-Lentinus lepideus
Procedure: (§1) The following fungi were tested: Neo-Lentinus lepideus (Brown rot fungus), Poria placenta (Brown rot fungus) and Gloeophyllum trabeum (Brown rot fungus). The preservative used was TBBA (waterborne). Seven concentrations of the preservative was used: 3.0%, 2.0%, 1.5%, 1.0%, 0.5%, 0.05% and 0.0% (w/w), i.e. the carrier solution in the absence of the preservative. All wood blocks were of Scots pine sapwood (Pinus sylvestris) with an approximate volume of 6.86 cm^3 (19 mm×19 mm×19 mm). All wood block specimens, where applicable, were vacuum impregnated with the preservative concentrations according to American standard ASTM D1413-76. • Treated test specimens: 3 (fungi)×7 (preservative concentrations)×1 (preservative)×8 (replicates)=168 test blocks • Untreated test specimens (control): 3 (fungi)×1 (preservative)×4 (replicates)=12 test blocks
(§2) After block treatments were completed, all the blocks were sterilized using ionizing radiation according to the conditions set out in American standard ASTM D1413-76. The incubation period for the test was 12 weeks.

Gloeophyllum trabeum = tested on: Gloeophyllum trabeum
Procedure: as §1, §2

Poria placenta = tested on: Poria placenta
Procedure: as §1, §2

[1] = TBBA waterborne 0.5% w/w, retention 3.86 kg/m^3, 12 weeks
[2] = TBBA waterborne 0.05% w/w, retention 0.38 kg/m^3, 12 weeks

SMILES: CC(C)(c1cc(Br)c(O)c(Br)c1)c1cc(Br)c(O)c(Br)c1 [TBBA, Tetrabromobisphenol A]
- Corrected mean loss in mass (%) (Neo-Lentinus lepideus; TBBA waterborne 0.05% w/w, retention 0.40 kg/m^3, 12 weeks): 31.44 (5.65) %
- Corrected mean loss in mass (%) (Neo-Lentinus lepideus; [1]): 4.55 (16.26) %
- Corrected mean loss in mass (%) (Neo-Lentinus lepideus; TBBA waterborne 1.0% w/w, retention 7.62 kg/m^3, 12 weeks): 0.36 (0.19) %
- Corrected mean loss in mass (%) (Neo-Lentinus lepideus; TBBA waterborne 1.5% w/w, retention 11.61 kg/m^3, 12 weeks): 0.04 (0.09) %
- Corrected mean loss in mass (%) (Neo-Lentinus lepideus; TBBA waterborne 2.0% w/w, retention 15.51 kg/m^3, 12 weeks): 0.04 (0.20) %
- Corrected mean loss in mass (%) (Neo-Lentinus lepideus; TBBA waterborne 3.0% w/w, retention 23.79 kg/m^3, 12 weeks): 0.11 (0.38) %
- Corrected mean loss in mass (%) (Gloeophyllum trabeum; [2]): 42.71 (13.14) %
- Corrected mean loss in mass (%) (Gloeophyllum trabeum; TBBA waterborne 0.5% w/w, retention 3.87 kg/m^3, 12 weeks): 45.02 (7.20) %
- Corrected mean loss in mass (%) (Gloeophyllum trabeum; TBBA waterborne 1.0% w/w, retention 7.73 kg/m^3, 12 weeks): 5.52 (8.99) %
- Corrected mean loss in mass (%) (Gloeophyllum trabeum; TBBA waterborne 1.5% w/w, retention 11.75 kg/m^3, 12 weeks): 2.232 (4.66) %
- Corrected mean loss in mass (%) (Gloeophyllum trabeum; TBBA waterborne 2.0% w/w, retention 15.62 kg/m^3, 12 weeks): 0.29 (0.25) %
- Corrected mean loss in mass (%) (Gloeophyllum trabeum; TBBA waterborne 3.0% w/w, retention 23.02 kg/m^3, 12 weeks): 0.13 (0.26) %
- Corrected mean loss in mass (%) (Poria placenta; [2]): 31.70 (9.88) %
- Corrected mean loss in mass (%) (Poria placenta; [1]): 30.27 (5.59) %
- Corrected mean loss in mass (%) (Poria placenta; TBBA waterborne 1.0% w/w, retention 7.81 kg/m^3, 12 weeks): 9.65 (18.03) %
- Corrected mean loss in mass (%) (Poria placenta; TBBA waterborne 1.5% w/w, retention 11.57 kg/m^3, 12 weeks): −0.12 (0.28) %
- Corrected mean loss in mass (%) (Poria placenta; TBBA waterborne 2.0% w/w, retention 15.72 kg/m^3, 12 weeks): −0.29 (0.26) %
- Corrected mean loss in mass (%) (Poria placenta; TBBA waterborne 3.0% w/w, retention 23.22 kg/m^3, 12 weeks): −0.71 (0.14) %
